Reference: patent US20060069132A1, “Azolecarboxamide herbicides” (priority 2004, published 2006)

Experiments:
barnyardgrass = test: Test A pre-/postemergence herbicide test; format: in vivo, Echinochloa crus-galli; conditions: for Plant response rating, Barnyardgrass: Postemergence; for Barnyardgrass plant response rating: Preemergence
How it was run: (§1)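 Visual injury rating on a 0–100 scale (0 no effect, 100 complete control) versus untreated controls, about ten days after treatment in greenhouse. Pre: directed soil spray onto seeded sandy loam. Post: spray to runoff on plants 2–10 cm tall at one- to two-leaf stage.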

common ragweed = test: Test C pre-/postemergence herbicide test; format: in vivo, Ambrosia elatior; design: key to Plant response rating, Ragweed: 0 = no effect, 100 = complete control; conditions: for Ragweed plant response rating: 500 g ai/ha
How it was run: (§2)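 Pre- and postemergence application, solvent/surfactant formulation; post at 1- to 4-leaf stage (2–18 cm). Greenhouse 12–14 d. Visual rating vs controls, 0 = no effect, 100 = complete control.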

kochia = test: Test C pre-/postemergence herbicide test; format: in vivo, Kochia scoparia; conditions: for Kochia plant response rating: 500 g ai/ha
How it was run: as §2

giant foxtail = test: Test C pre-/postemergence herbicide test; format: in vivo, Setaria faberi; conditions: for Foxtail, Giant plant response rating: 500 g ai/ha
How it was run: as §2

redroot pigweed = test: Test A pre-/postemergence herbicide test; format: in vivo, Amaranthus retroflexus; conditions: for Plant response rating, Pigweed: Postemergence; for Pigweed plant response rating: Preemergence
How it was run: as §1

[1] = tested on: common (oilseed) sunflower; test: Test C pre-/postemergence herbicide test; format: in vivo, Helianthus annuus; conditions: for Plant response rating (0 = no effect, 100 = complete control), Sunflower: 62 g ai/ha; for Plant response rating (0 = no effect, 100 = complete control), Sunflower / Plant response rating, Sunflower: preemergence
How it was run: as §2

velvetleaf = test: Test C pre-/postemergence herbicide test; format: in vivo, Abutilon theophrasti; conditions: for Velvetleaf plant response rating: 500 g ai/ha
How it was run: as §2

lambsquarters = test: Test C pre-/postemergence herbicide test; format: in vivo, Chenopodium album; conditions: for Lambsquarters plant response rating: 500 g ai/ha
How it was run: as §2

corn = test: Test C pre-/postemergence herbicide test; format: in vivo, Zea mays; conditions: for Corn plant response rating: 500 g ai/ha
How it was run: as §2

large crabgrass = test: Test A pre-/postemergence herbicide test; format: in vivo, Digitaria sanguinalis; conditions: for Plant response rating, Crabgrass, Large: Postemergence; for Crabgrass, Large plant response rating: Preemergence
How it was run: as §1

[2] = 500 g ai/ha, 0 to 100 scale, 0 no effect, 100 complete control
[3] = 2000 g ai/ha, 0 to 100 scale, 0 no effect, 100 complete control
[4] = 500 g ai/ha, visual rating, 0 to 100 scale (0 no effect, 100 complete control)
[5] = 250 g ai/ha, scale 0 to 100 (0 no effect, 100 complete control), visual, 12 to 14 days, preemergence
[6] = Postemergence, 250 g ai/ha, scale 0 to 100, 0 no effect, 100 complete control
[7] = Preemergence, scale 0 to 100, 0 no effect, 100 complete control
[8] = postemergence, 125 g ai/ha, scale 0 to 100
[9] = postemergence, 62 g ai/ha, scale 0 to 100
[10] = 125 g ai/ha, scale 0-100, preemergence
[11] = Postemergence, 125 g ai/ha, scale 0 to 100, 0 no effect, 100 complete control
[12] = 31 g ai/ha, preemergence, scale 0 to 100
[13] = 125 g ai/ha, scale 0 (no effect) to 100 (complete control), visual, 12 to 14 days, preemergence

Compound: C=Cn1nc(C(C)(C)C)cc1C(=O)Nc1cccc(C(=O)N(CC)CC)c1 [Compound 34]
- Plant response rating, Barnyardgrass (barnyardgrass; [2]): 45
- Plant response rating, Barnyardgrass (barnyardgrass; [3]): 80
- Barnyardgrass plant response rating (barnyardgrass; [4]): 55
- Barnyardgrass plant response rating (barnyardgrass; [3]): 80
- Plant response rating (0 = no effect, 100 = complete control), Ragweed (common ragweed; 62 g ai/ha, preemergence): 0
- Plant response rating, Ragweed (common ragweed; [5]): 0
- Ragweed plant response rating (common ragweed; Postemergence, scale 0 to 100): 40
- Plant response rating, Ragweed (common ragweed; [6]): 40
- Ragweed plant response rating (common ragweed; [7]): 40
- Plant response rating, Ragweed (common ragweed; [8]): 30
- Plant response rating, Ragweed (common ragweed; [9]): 20
- Plant response rating (0 = no effect, 100 = complete control), Kochia (kochia; 62 g ai/ha, preemergence): 90
- Plant response rating, Kochia (kochia; [10]): 90
- Kochia plant response rating (kochia; Postemergence, scale 0 to 100): 90
- Plant response rating, Kochia (kochia; [11]): 90
- Plant response rating, Kochia (kochia; [6]): 90
- Kochia plant response rating (kochia; [7]): 100
- Plant response rating, Kochia (kochia; [9]): 80
- Plant response rating (0 = no effect, 100 = complete control), Foxtail, Giant (giant foxtail; 62 g ai/ha, preemergence): 10
- Plant response rating, Foxtail, Giant (giant foxtail; [10]): 70
- Plant response rating, Foxtail, Giant (giant foxtail; [5]): 90
- Foxtail, Giant plant response rating (giant foxtail; Postemergence, scale 0 to 100): 40
- Plant response rating, Foxtail, Giant (giant foxtail; [11]): 40
- Plant response rating, Foxtail, Giant (giant foxtail; [6]): 40
- Foxtail, Giant plant response rating (giant foxtail; [7]): 100
- Plant response rating, Foxtail, Giant (giant foxtail; [9]): 20
- Plant response rating, Pigweed (redroot pigweed; [2]): 90
- Plant response rating, Pigweed (redroot pigweed; [3]): 90
- Pigweed plant response rating (redroot pigweed; [4]): 100
- Pigweed plant response rating (redroot pigweed; [3]): 100
- Plant response rating (0 = no effect, 100 = complete control), Sunflower [1]: 0
- Plant response rating, Sunflower ([1]; 250 g ai/ha, scale 0 to 100 (0 no effect, 100 complete control), visual, 12 to 14 days): 0
- Sunflower plant response rating ([1]; Preemergence, 500 g ai/ha, scale 0 to 100, 0 no effect, 100 complete control): 0
- Plant response rating (0 = no effect, 100 = complete control), Velvetleaf (velvetleaf; 62 g ai/ha, preemergence): 0
- Plant response rating, Velvetleaf (velvetleaf; [5]): 90
- Velvetleaf plant response rating (velvetleaf; Postemergence, scale 0 to 100): 70
- Plant response rating, Velvetleaf (velvetleaf; [6]): 70
- Velvetleaf plant response rating (velvetleaf; [7]): 100
- Plant response rating, Velvetleaf (velvetleaf; [8]): 70
- Plant response rating, Velvetleaf (velvetleaf; [9]): 20
- Plant response rating (0 = no effect, 100 = complete control), Lambsquarters (lambsquarters; 62 g ai/ha, preemergence): 90
- Plant response rating, Lambsquarters (lambsquarters; [10]): 100
- Plant response rating, Lambsquarters (lambsquarters; [5]): 100
- Lambsquarters plant response rating (lambsquarters; Postemergence, scale 0 to 100): 100
- Plant response rating, Lambsquarters (lambsquarters; [6]): 100
- Lambsquarters plant response rating (lambsquarters; [7]): 100
- Plant response rating, Lambsquarters (lambsquarters; [8]): 80
- Plant response rating, Lambsquarters (lambsquarters; [9]): 40
- Plant response rating (0 = no effect, 100 = complete control), Corn (corn; 62 g ai/ha, preemergence): 0
- Plant response rating, Corn (corn; [10]): 0
- Plant response rating, Corn (corn; [5]): 0
- Corn plant response rating (corn; Postemergence, scale 0 to 100): 70
- Plant response rating, Corn (corn; [11]): 30
- Plant response rating, Corn (corn; [6]): 50
- Corn plant response rating (corn; [7]): 0
- Plant response rating, Corn (corn; [9]): 20
- Plant response rating, Crabgrass, Large (large crabgrass; [2]): 30
- Plant response rating, Crabgrass, Large (large crabgrass; [3]): 50
- Crabgrass, Large plant response rating (large crabgrass; [4]): 60
- Crabgrass, Large plant response rating (large crabgrass; [3]): 100

Compound: CCNC(=O)c1cccc(NC(=O)c2cc(C(C)(C)C)nn2CCF)c1 [Compound 35]
- Plant response rating, Barnyardgrass (barnyardgrass; [2]): 70
- Plant response rating, Barnyardgrass (barnyardgrass; [3]): 85
- Barnyardgrass plant response rating (barnyardgrass; [4]): 70
- Barnyardgrass plant response rating (barnyardgrass; [3]): 90
- Plant response rating, Ragweed (common ragweed; [12]): 0
- Plant response rating (0 = no effect, 100 = complete control), Ragweed (common ragweed; 62 g ai/ha, preemergence): 10
- Plant response rating, Ragweed (common ragweed; [13]): 80
- Plant response rating, Ragweed (common ragweed; [8]): 50
- Plant response rating, Ragweed (common ragweed; [9]): 50
- Plant response rating, Kochia (kochia; [12]): 0
- Plant response rating (0 = no effect, 100 = complete control), Kochia (kochia; 62 g ai/ha, preemergence): 10
- Plant response rating, Kochia (kochia; [13]): 10
- Plant response rating, Kochia (kochia; [11]): 90
- Plant response rating, Kochia (kochia; [9]): 90
- Plant response rating, Foxtail, Giant (giant foxtail; [12]): 0
- Plant response rating (0 = no effect, 100 = complete control), Foxtail, Giant (giant foxtail; 62 g ai/ha, preemergence): 20
- Plant response rating, Foxtail, Giant (giant foxtail; [13]): 30
- Plant response rating, Foxtail, Giant (giant foxtail; [11]): 40
- Plant response rating, Foxtail, Giant (giant foxtail; [9]): 40
- Plant response rating, Pigweed (redroot pigweed; [2]): 85
- Plant response rating, Pigweed (redroot pigweed; [3]): 95
- Pigweed plant response rating (redroot pigweed; [4]): 100
- Pigweed plant response rating (redroot pigweed; [3]): 100
- Plant response rating, Sunflower ([1]; 31 g ai/ha, scale 0 to 100): 10
- Plant response rating (0 = no effect, 100 = complete control), Sunflower [1]: 10
- Plant response rating, Sunflower ([1]; 125 g ai/ha, scale 0 (no effect) to 100 (complete control), visual, 12 to 14 days): 10
- Plant response rating, Velvetleaf (velvetleaf; [12]): 0
- Plant response rating (0 = no effect, 100 = complete control), Velvetleaf (velvetleaf; 62 g ai/ha, preemergence): 100
- Plant response rating, Velvetleaf (velvetleaf; [13]): 100
- Plant response rating, Velvetleaf (velvetleaf; [8]): 80
- Plant response rating, Velvetleaf (velvetleaf; [9]): 70
- Plant response rating, Lambsquarters (lambsquarters; [12]): 0
- Plant response rating (0 = no effect, 100 = complete control), Lambsquarters (lambsquarters; 62 g ai/ha, preemergence): 90
- Plant response rating, Lambsquarters (lambsquarters; [13]): 100
- Plant response rating, Lambsquarters (lambsquarters; [8]): 90
- Plant response rating, Lambsquarters (lambsquarters; [9]): 90
- Plant response rating, Corn (corn; [12]): 0
- Plant response rating (0 = no effect, 100 = complete control), Corn (corn; 62 g ai/ha, preemergence): 0
- Plant response rating, Corn (corn; [13]): 0
- Plant response rating, Corn (corn; [11]): 40
- Plant response rating, Corn (corn; [9]): 30
- Plant response rating, Crabgrass, Large (large crabgrass; [2]): 55
- Plant response rating, Crabgrass, Large (large crabgrass; [3]): 60
- Crabgrass, Large plant response rating (large crabgrass; [4]): 95
- Crabgrass, Large plant response rating (large crabgrass; [3]): 100
